What was measured:
[1] = tested on: MEK; test: Cellular assay for measuring MEK inhibition (inhibition of ERK phosphorylation in C26 cells); type: cell-based; conditions: murine colon 26 (C26) carcinoma cells, 1 hour at 37° C., Western blot of dually phosphorylated ERK1 and ERK2
Experimental: The evaluation of the compounds as MEK inhibitors is performed in an assay that measures their ability to inhibit phosphorylation of MAP kinase (ERK) in murine colon 26 (C26) carcinoma cells. Since ERK1 and ERK2 represent the only known substrates for MEK, measurement of inhibition of ERK phosphorylation in cells provides direct readout of cellular MEK inhibition by the compounds of the invention. Briefly, the assay involves treating exponentially growing C26 cells with varying concentrations of the test compound (or vehicle control) for 1 hour at 37° C. Cells are then rinsed free of compound/vehicle and lysed in a solution containing 70 mM NaCl, 50 mM glycerol phosphate, 10 mM HEPES, pH 7.4, 1% Triton X-100, 1 mM Na3VO4, 100 μM PMSF, 10 μM leupeptin, and 10 μM pepstatin. Supernatants are then subjected to gel electrophoresis and Western blotting using a primary antibody recognizing dually phosphorylated ERK1 and ERK2. To evaluate total MAPK levels, blots were subsequently ‘stripped’ and re-probed with a 1:1 mixture of polyclonal antibodies recognizing unphosphorylated ERK1 and ERK2.
The inhibition data generated by the above protocol is disclosed in Table 1. If several concentrations of inhibitor were tested, IC50 values (the concentration which gives 50% inhibition) were determined graphically from the dose response curve for % inhibition. Otherwise, percent inhibitions at measured concentrations are reported.

SMILES	IC50 [1] [nM]	melting point [°C]
O=C(O)c1ccc(Nc2c(C(=O)NOCCO)ccc(F)c2F)cc1 [Example 2, 4-[[2,3-Difluoro-6-[[(2-hydroxyethoxy)amino]carbonyl]phenyl]amino]-benzoic acid]	73	180 to 183
COCC#Cc1ccc(Nc2c(C(=O)NOCCO)ccc(F)c2F)c(F)c1 [Example 5, 3,4-Difluoro-2-[[2-fluoro-4-(3-methoxy-1-propynyl)phenyl]amino]-N-(2-hydroxyethoxy)benzamide]	> 1000	121 to 123
CC(=O)c1ccc(Nc2c(C(=O)NOCCO)ccc(F)c2F)c(Cl)c1 [Example 6, 2-(4-Acetyl-2-chloro-phenylamino)-3,4-difluoro-N-(2-hydroxy-ethoxy)-benzamide]	–	161.5 to 162.5

Second part, the compound after the results:

IC50 [1] [nM]	melting point [°C]	SMILES
27	162 to 165	COC(=O)c1ccc(Nc2c(C(=O)NOCCO)ccc(F)c2F)c(F)c1 [Example 3, Methyl 4-(2,3-difluoro-6-{[(2-hydroxyethoxy)amino]carbonyl}anilino)-3-fluorobenzoate]
> 10000	197 to 200	CNC(=O)c1ccc(Nc2c(C(=O)NOCCO)ccc(F)c2F)c(F)c1 [Example 7, 2-{2-fluoro-4-[(methylamino)carbonyl]anilino}-3,4-difluoro-N-(2-hydroxyethoxy)benzamide]
> 1000	158 to 160	COC(=O)c1ccc(Nc2c(C(=O)NOCCO)ccc(F)c2F)cc1 [Example 1, Methyl 4-[[2.3-difluoro-6-[[(2-hydroxyethoxy)amino]carbonyl]phenyl]-amino]benzoate]
> 1000	196 to 200	O=C(O)c1ccc(Nc2c(C(=O)NOCCO)ccc(F)c2F)c(F)c1 [Example 4, 4-(2,3-Difluoro-6-{[(2-hydroxyethoxy)amino]carbonyl}anilino)-3-fluorobenzoic acid]
